As usually defined, the efflux ratio is a quotient of directional permeabilities that is used to spot active efflux. A word on the Papp A→B: it is how fast a substance crosses the layer from the apical side.

The text below walks through data of patent publication US20240368133A1, “Compounds for the Treatment of Pain, in Particular, Neuropathic Pain, and/or Other Diseases or Disorders that are Associated with AT2R and/or AT2R Mediated Signaling” (Confo Therapeutics N.V., priority 2021, published 2024).

A short description of series [1]: Metabolic stability in hepatocytes, mouse. The format is in vitro ADME. The note with it: hepatocytes (cryopreserved), read-out: Mouse Clint (μL/min/10^6 cells). The method, then:
The aim of this assay is to determine the metabolic stability of the compound in hepatocytes (cryopreserved) of different species (mouse CD1, rat Sprague Dawley, dog Beagle). Low hepatocyte stability may result in the formation of unwanted metabolites, high clearance, and therefore is not desirable. The decrease in parent was assessed by measuring the percentage remaining by LC-MS/MS analysis. The batches of hepatocytes were tested for quality control using Testosterone, Umbelliferone and Caffeine as reference compounds.
A 10 mM stock solution of test compound in DMSO was first diluted in DMSO to 3 mM, and then in modified Krebs-Henseleit buffer (Sigma, K3753) to 5 μM. This compound dilution was added to a suspension of pooled cryopreserved hepatocytes (BioIVT) at 37° C. under gentle shaking. Final reaction conditions were: 1 μM of test compound, <0.1% DMSO, 0.5 million viable hepatocytes/mL, and 75 μL incubation volume.
After 0, 10, 20, 45, 90, 120 and 180 min of incubation, the reaction was terminated with 3 volumes of MeCN:MeOH (2:1) containing diclofenac as analytical internal standard. Samples were mixed, centrifuged and the supernatant analyzed by LC-MS/MS (systems API4000). The instrument responses (ratios of test compound and internal standard peak areas) were referenced to the zero time point samples (considered as 100%) in order to determine the percentage of compound remaining. Plots of percentage compound remaining were used to determine the intrinsic clearance in the hepatocyte incubations.
Testosterone (1 μM) and Umbelliferone (1 μM) and Caffeine (1 μM) were used as reference compounds, being unstable and stable compounds respectively. If the hepatocyte stability values for these controls are not in the range determined by the historical data, the assay is not validated.

The nature of series [2]: Caco-2 permeability assay. The format is in vitro ADME. The note with it: human; for efflux ratio at 90 min, 10 µM / recovery at 90 min, 10 µM: Caco-2, pH 7.4; for Papp A→B at 90 min, 10 µM: pH 7.4, Caco-2, AB. The procedure: Caco-2 cells were cultured in 75 cm^2 flasks to 80-90% confluence according to the ATCC and Millipore recommendations (Arena A. et al., 2003) in humidified atmosphere at 37° C. and 5% CO2. Cells were detached with Trypsin/EDTA solution and resuspended in the cell culture medium to a final concentration of 2×10^5 cells/ml. 500 μl of the cell suspension was added to each well of HTS 24-Multiwell Insert System and 1000 μl of prewarmed complete medium was added to each well of the feeder-plate. Caco-2 cells were incubated in Multiwell Insert System for 21 days before the transport experiments. The medium in filter plate and feeder tray was refreshed every other day. After 21 days of the cell growth, the integrity of the monolayer was verified by measuring the transepithelial electrical resistance (TEER) for every well using the Millicell-ERS system ohm meter. The final TEER values were within the range 150-600 Ω×cm^2 (Srinivasan B. et al., 2015) as required for the assay conditions. 24-well insert plate was removed from its feeder plate and placed in a new sterile 24-well transport analysis plate. The inserts were washed with PBS after medium aspiration. To determine the rate of compounds transport in apical (A)-to-basolateral (B) direction, 300 μL of the test compound dissolved in transport buffer at 10 μM (HBSS, 25 mM HEPES, pH=7.4) was added into the filter wells; 1000 μL of buffer (HBSS, 25 mM HEPES, pH=7.4) was added to transport analysis plate wells. Propranolol, Atenolol, Quinidine and Digoxin were used as reference compounds. The plates were incubated for 90 min at 37° C. under continuous shaking at 50 rpm. 75 μL aliquots were taken from the donor and receiver compartments for LC-MS/MS analysis. All samples were mixed with 2 volumes of acetonitrile followed by protein sedimentation by centrifuging at 10000 rpm for 10 minutes. Supernatants were analyzed using the HPLC system coupled with tandem mass spectrometer. The apparent permeability (Papp) was calculated for Caco-2 permeability assay using the following equation:
• VA=volume of transport buffer in acceptor well • Area=surface area of the insert (equals to effective growth area of the insert −0.31 sq.cm) • Time=time of the assay • [drug]acc=concentration of test compound in acceptor well • [drug]initial,d=initial concentration of test compound in a donor well • Papp is expressed in 10^−6 cm/sec.
The % recovery can be useful in interpreting the Caco-2 data. If the recovery is very low, this may indicate poor solubility, binding of the compound to the test plate materials, metabolism by the Caco-2 cells, or accumulation of the compound in the cell monolayer. The % recovery was calculated using the following equation:
• Vacc=volume of compound solution in acceptor well […] • Vd=volume of compound solution in […] • Cacc=concentration of test compound in acceptor well (μM) • Cinitial,d=initial concentration of test compound in a donor well (μM)
For orientation: Caco-2 monolayers are a common model of the intestinal barrier.

With `CCC1CN(Cc2cccnn2)CCN1c1cc(CC(C)C)cc(F)c1-c1nn[nH]n1` (stereo not drawn) [Compound A-181, 3-[[3-ethyl-4-[3-fluoro-5-isobutyl-2-(2H-tetrazol-5-yl)phenyl]piperazin-1-yl]methyl]pyridazine], the hepatocyte CLint in series [1] came to 1 µL/min/1e6 cells.
In the case of `CC(C)Cc1cc(F)c(-c2nn[nH]n2)c(N2CC(C)N(Cc3cccnn3)CC2C)c1` (stereo not drawn) [Compound A-183, 3-[[4-[3-fluoro-5-isobutyl-2-(2H-tetrazol-5-yl)phen-yl]-2,5-dimethyl-piperazin-1-yl]-methyl]pyridazine], the hepatocyte CLint in series [1] stood at 2 µL/min/1e6 cells.
On to `CCC1CN(c2cc(CC(C)C)cc(F)c2-c2nn[nH]n2)CCN1Cc1cccnn1` (stereo not drawn) [Compound A-178, 3-[[2-ethyl-4-[3-fluoro-5-isobutyl-2-(2H-tetrazol-5-yl)phenyl]piperazin-1-yl]methyl]pyridazine], for which the hepatocyte CLint in series [1] worked out at 0.8 µL/min/1e6 cells. In series [2], the efflux ratio at 90 min, 10 µM was 7.2; the recovery at 90 min, 10 µM came to 94%; the Papp A→B at 90 min, 10 µM is 12 nm/s.
In series [2], `CC(C)Cc1ccc(-c2nn[nH]n2)c(N2CCN(Cc3cccnn3)CC2)c1` [Compound A-90, 3-[[4-[5-isobutyl-2-(2H-tetrazol-5-yl)phenyl]piperazin-1-yl]methyl]pyridazine] registered a recovery at 90 min, 10 µM of 91% and a Papp A→B at 90 min, 10 µM of less than 34 nm/s.
Take `CC(C)Cc1cc(F)c(-c2nn[nH]n2)c(N2CCN(Cc3cccnn3)[C@@H](C)C2)c1` [Compound A-174, 3-[[(2S)-4-[3-fluoro-5-isobutyl-2-(2H-tetrazol-5-yl)phenyl]-2-methyl-piperazin-1-yl]methyl]pyridazine]: in series [1], the hepatocyte CLint was less than 5.4 µL/min/1e6 cells. For the same molecule, in series [2], the efflux ratio at 90 min, 10 µM amounted to 16; the recovery at 90 min, 10 µM amounted to 90%; the Papp A→B at 90 min, 10 µM came to 1.5 nm/s.
Consider `CC(C)Cc1ccc(-c2nn[nH]n2)c(N2CCN(Cc3nc4ccccc4c(=O)[nH]3)CC2)c1` [Compound A-31, 2-[[4-[5-isobutyl-2-(2H-tetrazol-5-yl)phenyl]piperazin-1-yl]methyl]-3H-quinazolin-4-one], for which, in series [2], the recovery at 90 min, 10 µM worked out at 77% and the Papp A→B at 90 min, 10 µM was determined as 28 nm/s.
As for `CC(C)Cc1cc(F)c(-c2nn[nH]n2)c(N2CCN(Cc3cccnn3)C(C)C2)c1` (stereo not drawn) [Compound A-173, 3-[[4-[3-fluoro-5-isobutyl-2-(2H-tetrazol-5-yl)phenyl]-2-methyl-piperazin-1-yl]methyl]pyridazine], in series [1], the hepatocyte CLint is 4 µL/min/1e6 cells.
